Experimental findings from patent publication US20030065176A1, “Factor xa inhibitors with aryl-amidines and derivatives, and prodrugs thereof” (priority 2000, published 2003) are described below.

Holding throughout (assay type): biochemical
For one assay, the target named is human thrombin (Homo sapiens, UniProt P00734). The assay can be described thus: Thrombin inhibition assay (selectivity against thrombin). The conditions noted are these: A3: bicyclic scaffold; ratio of Ki values. On the procedure: The FXa inhibiting selectivity of the compound according to the present invention to thrombin is measured as follows. The inhibition effect of the compound of formula 1 to thrombin is measured in Ki value by practicing the same method as the above measuring method of FXa inhibiting activity, and the rate of thrombin/FXa is obtained. At this time, the experimental method of thrombin is the same as that of FXa, except that Chromozyme TH (Tosyl-Gly-Pro-Arg-nitroanilide acetate) is used as the substrate.
Inhibiting ability of a compound according to the present invention against thrombin activity was measured as follows.
In 1.5 mL cuvette, 0.1M tris buffer solution (pH 7.8) comprising 150 mM NaCl, and 0.1% PEG 8000 (molecular weight 8000) was placed by 1160 uL. Chromozyme X was dissolved in dimethylsulfoxide (DMSO) to be 0.1 mM, and diluted with the above buffer solution to be 0.1 mM to prepare the substrate solution. 225 uL of 0.1 mM substrate solution as prepared above was added to cuvette. The compound of the present invention was dissolved in DMSO to be 10 mM, and diluted with the above buffer solution to be 0.1 mM, 0.01 mM and 0.001 mM, respectively, to prepare an inhibitor solution. The inhibitor solution was taken in an amount from 0 to 20 uL, and supplemented with tris buffer solution up to 20 uL of total volume of the solution to add to the cuvette.
15 uL of human thrombin, which was dissolved in the above tris buffer solution to be 0.1 mg/mL, was added to the cuvette having the reaction solution at room temperature to begin enzyme hydrolysis. The amount of para-nitroanilide produced for 2 minutes after adding enzyme was monitored about variation of absorbency at 381 nm to depict continuous spectrum of reaction time to absorbency. The above experiment was repeated for various concentrations of inhibitor to obtain consecutive spectrum.
The initial velocity Vi was calculated from gradient within 30 sec of the reaction time in each spectrum. A graph was depicted for a reciprocal of the initial velocity to inhibitor concentration (1/Vi). A linear equation corresponding to points on the graph was obtained. Thereafter, Ki may be calculated by using enzyme reaction equation from x intercept.

Assay [1] has as its target T1, trypsin (UniProt P00760).
T1 construct: other: A1: cyclopropyl scaffold; other: A2: pyrrole scaffold; other: A3: bicyclic scaffold; other: A4: cyanophenylalanine scaffold
T1 sequence (P00760 1-246): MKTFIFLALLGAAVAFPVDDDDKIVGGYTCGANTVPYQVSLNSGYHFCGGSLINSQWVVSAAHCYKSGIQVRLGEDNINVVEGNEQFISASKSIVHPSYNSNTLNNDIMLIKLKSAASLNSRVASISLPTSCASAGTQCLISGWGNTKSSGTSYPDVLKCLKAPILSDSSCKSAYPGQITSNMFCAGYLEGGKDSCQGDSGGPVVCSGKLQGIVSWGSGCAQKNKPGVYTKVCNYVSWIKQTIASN
The experiment in a line: Trypsin inhibition assay (selectivity against trypsin). The settings on record: A3: bicyclic scaffold; read-out: Inhibition ability against trypsin Ki. On the procedure: (§1) The FXa inhibition selectivity of the compound according to the present invention to trypsin is measured as follows. The inhibition effect of the compound of formula 1 to trypsin is measured in Ki value by practicing the same method as the above measuring method of FXa inhibiting activity, and the rate of trypsin/FXa is obtained. At this time, the experimental method of thrombin is the same as that of FXa, except that N-benzoyl-Val-Gly-Arg-p-nitroanilide hydrochloride is used as the substrate.
(§2) Inhibition activity of a compound according to the present invention was measured by performing the experiment as explained above concerning FXa.
(§3) 20 uM solution of N-benzoyl-Val-Gly-Arg-p-nitroanilide hydrochloride was used as a substrate. An inhibitor solution with various concentrations in the range of 0 to 120 uM was used. Trypsin was dissolved in 0.1N HCl, and supplemented with the above tris buffer solution to be 45 ug/mL. Thereafter, 40 uL of the trypsin solution was used. The remaining procedure and the used amounts of materials (for example, […] of total volume of the reaction solution) and the like were the same as those of the experiment for thrombin. Also, Km was decided in the same method as used in Ki calculation.

In assay [2] the test system is trypsin. The assay is described as above. The conditions noted are these: A3: bicyclic scaffold; ratio of Ki values. Here is the method:
as §1, §2, §3

As usually defined, the Ki is the dissociation constant of the complex between target and ligand, obtained from inhibition or displacement. As for `C[n+]1cccc(-c2ccc(NC(=O)C3=C(c4cccc(C(=N)N)c4)CCC3)cc2)c1.O=C([O-])C(F)(F)F` [Compound No. A3-26, 4-(N-methylpyridinium-3-yl)-phenyl 2-(3-aminoiminomethylphenyl)-cyclopenetene-1-carboxamide trifluoroacetic acid salt], the “Selectivity (thrombin/FXa)” value at human thrombin is 670. Besides, on trypsin [1], the Ki came to 210 nM. Moreover, the “Selectivity (trypsin/FXa)” value in the assay on trypsin [2] is reported as 10.
